Measurements as given in US4731360A, “Acylcarnitines as absorption-enhancing agents for drug delivery through mucous membranes of the nasal, buccal, sublingual and vaginal compartments” (Merck & Co., Inc., priority 1985, dated 1988).
Blank lines part the entries; values can stand above or below the molecule they belong to.

Columns and labels:
[1] = tested on: mucous membranes of the nasal, buccal, sublingual and vaginal compartments; assay: Promotion of drug absorption through mucous membranes; conditions: without acyl ester
mucosal cells = conditions: studies of surfactants; cited from earlier work
[2] = Percent bioavailability of α-methyldopa after nasal, oral (buccal) or vaginal administration to rats, with or without palmitoylcarnitine chloride; blood levels by HPLC, against intravenous administration; assay type: in vivo; conditions: aqueous formulation, mean ± SD, n = 3, vs intravenous; for Percent α-methyldopa Bioavailability in the Presence (+) of Palmitoylcarnitine: with 1.0 mg palmitoylcarnitine chloride; for Percent α-methyldopa Bioavailability in the Absence (-) of Palmitoylcarnitine: without palmitoylcarnitine
Protocol: Effect of palmitoylcarnitine chloride on the nasal, buccal and vaginal absorption of α-methyldopa (amino acid, antihypertensive). Experiments were performed with rats wherein each animal received an aqueous formulation administered to the nasal, oral or vaginal cavities. The formulations contained the indicated amount of α-methyldopa in the presence or absence of 1.0 mg palmitoylcarnitine chloride. Procedures were tested to eliminate the possibility of cross-contamination between the nasal and oral cavities. Blood levels of α-methyldopa were determined by high performance liquid chromatography and the amount of drug absorbed (percent bioavailability) calculated against intravenous α-methyldopa administration. | Values represent the mean ± SD for n = 3 determinations.

[3] = nasal cavity, α-methyldopa 0.5 mg
[4] = oral cavity (buccal), α-methyldopa 2.5 mg
[5] = vaginal cavity, α-methyldopa 2.5 mg

SMILES: C[N+](C)(C)CC(O)CC(=O)[O-] (centres unmarked) [carnitine]
- absorption promoting effect of carnitine alone [1]: no effect

SMILES: CCCCCCCCCCCCOS(=O)(=O)[O-].[Na+] [sodium lauryl sulfate]
- cellular damage associated with surfactant activity (mucosal cells): generally associated with some degree of cellular damage

- Percent α-methyldopa Bioavailability in the Presence (+) of Palmitoylcarnitine [2, 3]: 52 ± 16.2%
- Percent α-methyldopa Bioavailability in the Absence (-) of Palmitoylcarnitine [2, 3]: 7 ± 1.1%
- Percent α-methyldopa Bioavailability in the Presence (+) of Palmitoylcarnitine [2, 4]: 10 ± 6.0%
- Percent α-methyldopa Bioavailability in the Absence (-) of Palmitoylcarnitine [2, 4]: 3 ± 0.7%
- Percent α-methyldopa Bioavailability in the Presence (+) of Palmitoylcarnitine [2, 5]: 100 ± 55.0%
- Percent α-methyldopa Bioavailability in the Absence (-) of Palmitoylcarnitine [2, 5]: 2 ± 1.0%
SMILES: C[C@](N)(Cc1ccc(O)c(O)c1)C(=O)O [α-methyldopa]
